Assay [1] has as its system SARS-CoV-2. Format: functional, organism-based, Severe acute respiratory syndrome coronavirus 2, G614, Vero E6.
Assay [2] has as its system SARS-CoV-2. As to the kind of experiment: microbe, parasite or virus in culture. As to conditions: Severe acute respiratory syndrome coronavirus 2, D614, Vero C1008; call rule not given here.
The target in assay [3] is Spike glycoprotein (Severe acute respiratory syndrome coronavirus 2, UniProt P0DTC2). As to the kind of experiment: Binding affinity to RBD domain of SARS-CoV-2 spike protein assessed as dissociation constant by Isothermal Titration Calorimetry.
Setting [4] is: Severe acute respiratory syndrome coronavirus 2, G614, Vero C1008, read-out: IC50.

≈ marks a conversion by molar mass, not a printed value.

Usually IC50 stands for the concentration at which inhibition is half-maximal. On to `CC(C)CCC[C@@H](C)[C@H]1CC[C@H]2[C@@H]3CC[C@H]4C[C@@H](O[C@@H]5O[C@H](COS(=O)(=O)[O-])[C@@H](O[C@H]6O[C@H](COS(=O)(=O)[O-])[C@@H](O[C@H]7O[C@H](COS(=O)(=O)[O-])[C@@H](O[C@H]8O[C@H](COS(=O)(=O)[O-])[C@@H](O[C@H]9O[C@H](COS(=O)(=O)[O-])[C@@H](O[C@H]%10O[C@H](COS(=O)(=O)[O-])[C@@H](OS(=O)(=O)[O-])[C@H](OS(=O)(=O)[O-])[C@H]%10OS(=O)(=O)[O-])[C@H](OS(=O)(=O)[O-])[C@H]9OS(=O)(=O)[O-])[C@H](OS(=O)(=O)[O-])[C@H]8OS(=O)(=O)[O-])[C@H](OS(=O)(=O)[O-])[C@H]7OS(=O)(=O)[O-])[C@H](OS(=O)(=O)[O-])[C@H]6OS(=O)(=O)[O-])[C@H](OS(=O)(=O)[O-])[C@H]5OS(=O)(=O)[O-])CC[C@]4(C)[C@H]3CC[C@]12C.[Na+].[Na+].[Na+].[Na+].[Na+].[Na+].[Na+].[Na+].[Na+].[Na+].[Na+].[Na+].[Na+].[Na+].[Na+].[Na+].[Na+].[Na+].[Na+]`, for which the IC50 in assay [1] (setting [4]) worked out at 65.9 µg/mL; in assay [2], 11.9 µg/mL. `O=C(CCCCCCCCCCn1cc(CNc2ccc([N+](=O)[O-])c3nonc23)nn1)NCCCCCCCCCCCO[C@@H]1O[C@H](COS(=O)(=O)[O-])[C@@H](O[C@H]2O[C@H](COS(=O)(=O)[O-])[C@@H](O[C@H]3O[C@H](COS(=O)(=O)[O-])[C@@H](O[C@H]4O[C@H](COS(=O)(=O)[O-])[C@@H](OS(=O)(=O)[O-])[C@H](OS(=O)(=O)[O-])[C@H]4OS(=O)(=O)[O-])[C@H](OS(=O)(=O)[O-])[C@H]3OS(=O)(=O)[O-])[C@H](OS(=O)(=O)[O-])[C@H]2OS(=O)(=O)[O-])[C@H](OS(=O)(=O)[O-])[C@H]1OS(=O)(=O)[O-].[Na+].[Na+].[Na+].[Na+].[Na+].[Na+].[Na+].[Na+].[Na+].[Na+].[Na+].[Na+].[Na+]`: the figures for the IC50 entry in assay [1] (vero e6) and in assay [2] were “Not Active” and 166 µg/mL, respectively. Molecule `CC(C)CCC[C@@H](C)[C@H]1CC[C@H]2[C@@H]3CC[C@H]4C[C@@H](O[C@@H]5O[C@@H](COS(=O)(=O)O)[C@@H](O[C@@H]6O[C@@H](COS(=O)(=O)O)[C@@H](OS(=O)(=O)O)[C@H](O)[C@H]6OS(=O)(=O)O)[C@H](O)[C@H]5OS(=O)(=O)O)CC[C@]4(C)[C@H]3CC[C@]12C` displayed an IC50 in assay [2] of 32.1 µg/mL (≈ 28.8 µM). Turning to `CC(C)CCC[C@@H](C)[C@H]1CC[C@H]2[C@@H]3CC[C@H]4C[C@@H](O[C@@H]5O[C@@H](COS(=O)(=O)O)[C@@H](O[C@@H]6O[C@@H](COS(=O)(=O)O)[C@@H](O[C@@H]7O[C@@H](COS(=O)(=O)O)[C@@H](O[C@@H]8O[C@@H](COS(=O)(=O)O)[C@@H](OS(=O)(=O)O)[C@H](O)[C@H]8OS(=O)(=O)O)[C@H](O)[C@H]7OS(=O)(=O)O)[C@H](O)[C@H]6OS(=O)(=O)O)[C@H](O)[C@H]5OS(=O)(=O)O)CC[C@]4(C)[C@H]3CC[C@]12C`, the IC50 in assay [2] was 27.5 µg/mL (≈ 15.6 µM). For the molecule `CC(C)CCC[C@@H](C)[C@H]1CC[C@H]2[C@@H]3CC[C@H]4C[C@@H](OCc5cn(CCCO[C@@H]6O[C@H](COS(=O)(=O)[O-])[C@@H](O[C@H]7O[C@H](COS(=O)(=O)[O-])[C@@H](O[C@H]8O[C@H](COS(=O)(=O)[O-])[C@@H](O[C@H]9O[C@H](COS(=O)(=O)[O-])[C@@H](OS(=O)(=O)[O-])[C@H](OS(=O)(=O)[O-])[C@H]9OS(=O)(=O)[O-])[C@H](OS(=O)(=O)[O-])[C@H]8OS(=O)(=O)[O-])[C@H](OS(=O)(=O)[O-])[C@H]7OS(=O)(=O)[O-])[C@H](OS(=O)(=O)[O-])[C@H]6OS(=O)(=O)[O-])nn5)CC[C@]4(C)[C@H]3CC[C@]12C.[Na+].[Na+].[Na+].[Na+].[Na+].[Na+].[Na+].[Na+].[Na+].[Na+].[Na+].[Na+].[Na+]`, the IC50 in assay [1] (setting [4]) was 310 µg/mL; in assay [2] it was 115 µg/mL.

Regarding `C[C@H](CCC[C@@H](C)[C@H]1CC[C@@H]2C1CC[C@H]1[C@H]2CC[C@H]2C[C@@H](O[C@@H]3O[C@H](COS(=O)(=O)[O-])[C@@H](O[C@H]4O[C@H](COS(=O)(=O)[O-])[C@@H](O[C@H]5O[C@H](COS(=O)(=O)[O-])[C@@H](O[C@H]6O[C@H](COS(=O)(=O)[O-])[C@@H](OS(=O)(=O)[O-])[C@H](OS(=O)(=O)[O-])[C@H]6OS(=O)(=O)[O-])[C@H](OS(=O)(=O)[O-])[C@H]5OS(=O)(=O)[O-])[C@H](OS(=O)(=O)[O-])[C@H]4OS(=O)(=O)[O-])[C@H](OS(=O)(=O)[O-])[C@H]3OS(=O)(=O)[O-])CC[C@@]21C)CN=[N+]=[N-].[Na+].[Na+].[Na+].[Na+].[Na+].[Na+].[Na+].[Na+].[Na+].[Na+].[Na+].[Na+].[Na+]` (stereo partly drawn), the IC50 was 109 µg/mL in assay [1] (setting [4]) and 16.7 µg/mL in assay [2]. For orientation: Kd means the constant that tells how readily two partners part at equilibrium. `CC(C)CCC[C@@H](C)[C@H]1CC[C@H]2[C@@H]3CC[C@H]4C[C@@H](O[C@@H]5O[C@@H](C(=O)O)[C@@H](O[C@@H]6O[C@@H](C(=O)O)[C@@H](O[C@@H]7O[C@@H](C(=O)O)[C@@H](OS(=O)(=O)O)[C@H](O)[C@H]7OS(=O)(=O)O)[C@H](O)[C@H]6OS(=O)(=O)O)[C@H](O)[C@H]5OS(=O)(=O)O)CC[C@]4(C)[C@H]3CC[C@]12C` had an IC50 in assay [2] of 30.4 µg/mL (≈ 24.6 µM). Also, the Kd in assay [3] was found to be 9.18 µM. Regarding `C#CCNC(=O)CC[C@@H](C)[C@H]1CC[C@H]2[C@@H]3CC[C@@H]4C[C@H](O[C@@H]5O[C@H](COS(=O)(=O)[O-])[C@@H](O[C@H]6O[C@H](COS(=O)(=O)[O-])[C@@H](O[C@H]7O[C@H](COS(=O)(=O)[O-])[C@@H](O[C@H]8O[C@H](COS(=O)(=O)[O-])[C@@H](OS(=O)(=O)[O-])[C@H](OS(=O)(=O)[O-])[C@H]8OS(=O)(=O)[O-])[C@H](OS(=O)(=O)[O-])[C@H]7OS(=O)(=O)[O-])[C@H](OS(=O)(=O)[O-])[C@H]6OS(=O)(=O)[O-])[C@H](OS(=O)(=O)[O-])[C@H]5OS(=O)(=O)[O-])CC[C@]4(C)[C@H]3CC[C@]12C.[Na+].[Na+].[Na+].[Na+].[Na+].[Na+].[Na+].[Na+].[Na+].[Na+].[Na+].[Na+].[Na+]`, the IC50 result in assay [1] (vero e6) is “Not Active”; in assay [2], 85.3 µg/mL. Take `[N-]=[N+]=NCCCCCCCCCCC(=O)NCCCCCCO[C@@H]1O[C@H](COS(=O)(=O)[O-])[C@@H](O[C@H]2O[C@H](COS(=O)(=O)[O-])[C@@H](O[C@H]3O[C@H](COS(=O)(=O)[O-])[C@@H](O[C@H]4O[C@H](COS(=O)(=O)[O-])[C@@H](OS(=O)(=O)[O-])[C@H](OS(=O)(=O)[O-])[C@H]4OS(=O)(=O)[O-])[C@H](OS(=O)(=O)[O-])[C@H]3OS(=O)(=O)[O-])[C@H](OS(=O)(=O)[O-])[C@H]2OS(=O)(=O)[O-])[C@H](OS(=O)(=O)[O-])[C@H]1OS(=O)(=O)[O-].[Na+].[Na+].[Na+].[Na+].[Na+].[Na+].[Na+].[Na+].[Na+].[Na+].[Na+].[Na+].[Na+]`: the IC50 amounted to 158 µg/mL in assay [1] (setting [4]) and 101 µg/mL in assay [2]. For `CC(C)CCC[C@@H](C)[C@H]1CC[C@H]2[C@@H]3CC[C@H]4C[C@@H](O[C@H]5O[C@H](COS(=O)(=O)[O-])[C@@H](O[C@H]6O[C@H](COS(=O)(=O)[O-])[C@@H](O[C@H]7O[C@H](COS(=O)(=O)[O-])[C@@H](O[C@H]8O[C@H](COS(=O)(=O)[O-])[C@@H](OS(=O)(=O)[O-])[C@H](OS(=O)(=O)[O-])[C@H]8OS(=O)(=O)[O-])[C@H](OS(=O)(=O)[O-])[C@H]7OS(=O)(=O)[O-])[C@H](OS(=O)(=O)[O-])[C@H]6OS(=O)(=O)[O-])[C@H](OS(=O)(=O)[O-])[C@H]5OS(=O)(=O)[O-])CC[C@]4(C)[C@H]3CC[C@]12C.[Na+].[Na+].[Na+].[Na+].[Na+].[Na+].[Na+].[Na+].[Na+].[Na+].[Na+].[Na+].[Na+]`, the IC50 result was “Not Active” in assay [1] (vero e6) and 148 µg/mL in assay [2]. With `CC(C)CCC[C@@H](C)[C@H]1CC[C@H]2[C@@H]3CC[C@H]4C[C@@H](O[C@@H]5O[C@@H](COS(=O)(=O)O)[C@@H](O[C@@H]6O[C@@H](COS(=O)(=O)O)[C@@H](O[C@@H]7O[C@@H](COS(=O)(=O)O)[C@@H](OS(=O)(=O)O)[C@H](O)[C@H]7OS(=O)(=O)O)[C@H](O)[C@H]6OS(=O)(=O)O)[C@H](O)[C@H]5OS(=O)(=O)O)CC[C@]4(C)[C@H]3CC[C@]12C`, half-maximal inhibition in assay [2] (IC50) was put at 26.9 µg/mL (≈ 18.7 µM). For the same molecule, in assay [3], the Kd was determined as 2.11 µM. For `CCCCCCCCCCCCCCCCCC(=O)NCCCO[C@@H]1O[C@H](COS(=O)(=O)[O-])[C@@H](O[C@H]2O[C@H](COS(=O)(=O)[O-])[C@@H](O[C@H]3O[C@H](COS(=O)(=O)[O-])[C@@H](O[C@H]4O[C@H](COS(=O)(=O)[O-])C(S(=O)(=O)[O-])[C@H](OS(=O)(=O)[O-])[C@H]4OS(=O)(=O)[O-])[C@H](OS(=O)(=O)[O-])[C@H]3OS(=O)(=O)[O-])[C@H](OS(=O)(=O)[O-])[C@H]2OS(=O)(=O)[O-])[C@H](OS(=O)(=O)[O-])[C@H]1OS(=O)(=O)[O-].[Na+].[Na+].[Na+].[Na+].[Na+].[Na+].[Na+].[Na+].[Na+].[Na+].[Na+].[Na+].[Na+]` (stereo partly drawn), the IC50 in assay [1] (setting [4]) turned out to be 70.8 µg/mL; in assay [2] it was 19.5 µg/mL. In assay [2], `CC(C)CCC[C@@H](C)[C@H]1CC[C@H]2[C@@H]3CC[C@H]4C[C@@H](O[C@@H]5O[C@@H](C(=O)O)[C@@H](O[C@@H]6O[C@@H](C(=O)O)[C@@H](O[C@@H]7O[C@@H](C(=O)O)[C@@H](O[C@@H]8O[C@@H](C(=O)O)[C@@H](OS(=O)(=O)O)[C@H](O)[C@H]8OS(=O)(=O)O)[C@H](O)[C@H]7OS(=O)(=O)O)[C@H](O)[C@H]6OS(=O)(=O)O)[C@H](O)[C@H]5OS(=O)(=O)O)CC[C@]4(C)[C@H]3CC[C@]12C` came in with an IC50 of 48.5 µg/mL (≈ 32.5 µM).

The values above are taken from ChEMBL document CHEMBL5523749, “Amphiphilic Heparinoids as Potent Antiviral Agents against SARS-CoV-2” (J Med Chem, 2024).
